ChEMBL document CHEMBL4049405, “Investigation on cellular uptake and pharmacodynamics of DOCK2-inhibitory peptides conjugated with cell-penetrating peptides” (Bioorg Med Chem, 2017)
Positions of bridges follow the written chain, without caps; N, C: chain ends. Non-standard residues stand in square brackets, D forms with d. Residues, ends and D or L forms follow the SMILES beside them. *: point of attachment. X1 = O=C(OCCCS*)Oc1ccc2nc(C3=N[C@@H](C(=O)O)CS3)sc2c1; X2 = CC(=O)[C@H]1CSC(c2nc3ccc(OC(=O)OCCCS*)cc3s2)=N1; Mpa = O=C(O)CCS

Experiments:
[1] = Drug uptake in HEK293T cells expressing luciferase reporter gene at 50 uM measured every 3 mins for 60 mins by luminescence assay relative to 50 uM luciferin; type: ADME, cell-based; settings: human, hek-293t, 1 h
[2] = Cytotoxicity against HEK293T cells assessed as cell viability at 50 uM by CellTiter-Glo assay relative to control; settings: human
in vitro [3] = settings: human, HEK293T cells
Description: Cytotoxicity against HEK293T cells assessed as cell viability at 6.3 uM by CellTiter-Glo assay relative to control

in vitro [4] = settings: human, HEK293T cells; remark: listed apart in the source
Description: Cytotoxicity against HEK293T cells assessed as cell viability at 12.5 uM by CellTiter-Glo assay relative to control

in vitro [5] = settings: human, HEK293T cells; remark: listed apart in the source
Description: Cytotoxicity against HEK293T cells assessed as cell viability at 25 uM by CellTiter-Glo assay relative to control

in vitro [6] = settings: human, HEK293T cells; remark: listed apart in the source
Description: Cytotoxicity against HEK293T cells assessed as cell viability at 1.9 uM by CellTiter-Glo assay relative to control

in vitro [7] = settings: human, HEK293T cells; remark: listed apart in the source
Description: Cytotoxicity against HEK293T cells assessed as cell viability at 5.6 uM by CellTiter-Glo assay relative to control

in vitro [8] = settings: human, HEK293T cells; remark: listed apart in the source
Description: Cytotoxicity against HEK293T cells assessed as cell viability at 16.7 uM by CellTiter-Glo assay relative to control

SMILES	fold change (FC) [1]	viability at 50 µM [2] [%]	viability at 6.3 µM (in vitro [3]) [%]	viability at 12.5 µM (in vitro [4]) [%]	viability at 25 µM (in vitro [5]) [%]	viability at 1.9 µM (in vitro [6]) [%]	viability at 5.6 µM (in vitro [7]) [%]	viability at 16.7 µM (in vitro [8]) [%]
CC(=O)N[C@@H](CSSCCCOC(=O)Oc1ccc2nc(C3=N[C@@H](C(=O)O)CS3)sc2c1)C(=O)N[C@H]1CSSC[C@@H](C(=O)N[C@@H](CCCNC(=N)N)C(=O)N[C@@H](CCCNC(=N)N)C(=O)N[C@@H](CCCNC(=N)N)C(=O)N[C@@H](CCCNC(=N)N)C(=O)N[C@@H](CCCNC(=N)N)C(=O)N[C@@H](CCCNC(=N)N)C(=O)N[C@@H](CCCNC(=N)N)C(=O)N[C@@H](CCCNC(=N)N)C(N)=O)NC(=O)[C@H](Cc2c[nH]c3ccccc23)NC(=O)[C@@H]2CCCN2C(=O)[C@H](Cc2ccc(O)cc2)NC(=O)CNC(=O)[C@H](Cc2cnc[nH]2)NC(=O)[C@H](Cc2ccc(O)cc2)NC(=O)[C@H](CCCCN)NC(=O)[C@H](C)NC(=O)[C@H](C(C)C)NC1=O (Ac-C(X1)CVAKYHGYPWCRRRRRRRR-NH2; disulfide 2-12)	61	71.7	108	104	99.7	–	–	–
CC(C)C[C@H](NC(=O)[C@H](CCCCN)NC(=O)[C@H](Cc1c[nH]c2ccccc12)NC(=O)[C@H](CCCNC(=N)N)NC(=O)[C@H](CCCCN)NC(=O)[C@H](CC(C)C)NC(=O)[C@@H](NC(=O)[C@H](CCCNC(=N)N)NC(=O)[C@@H](NC(=O)CCSSCCCOC(=O)Oc1ccc2nc(C3=N[C@@H](C(=O)O)CS3)sc2c1)[C@@H](C)O)C(C)C)C(=O)N[C@@H](Cc1ccccc1)C(N)=O ([Mpa](X1)TRVLKRWKLF-NH2)	216.3	88.5	–	–	–	94.3	92.4	97.3
CC(=O)N[C@@H](CSSCCCOC(=O)Oc1ccc2nc(C3=N[C@@H](C(C)=O)CS3)sc2c1)C(=O)N[C@H]1CSSC[C@@H](C(=O)N[C@@H](CCCNC(=N)N)C(=O)N[C@@H](CCCNC(=N)N)C(=O)N[C@@H](CCCNC(=N)N)C(N)=O)NC(=O)[C@H](Cc2c[nH]c3ccccc23)NC(=O)[C@@H]2CCCN2C(=O)[C@H](Cc2ccc(O)cc2)NC(=O)CNC(=O)[C@H](Cc2cnc[nH]2)NC(=O)[C@H](Cc2ccc(O)cc2)NC(=O)[C@H](CCCCN)NC(=O)[C@H](C)NC(=O)[C@H](C(C)C)NC1=O (Ac-C(X2)CVAKYHGYPWCRRR-NH2; disulfide 2-12)	22.8	126	105	112	115	–	–	–
CC(C)C[C@H](NC(=O)[C@H](CCCCN)NC(=O)[C@H](Cc1c[nH]c2ccccc12)NC(=O)[C@H](CCCNC(=N)N)NC(=O)[C@H](CCCCN)NC(=O)CCSSCCCOC(=O)Oc1ccc2nc(C3=N[C@@H](C(=O)O)CS3)sc2c1)C(=O)N[C@@H](Cc1ccccc1)C(=O)N[C@@H](CC(N)=O)C(=O)N[C@@H](CCCCN)C(=O)N[C@@H](CCC(N)=O)C(=O)N[C@@H](CCC(=O)O)C(N)=O ([Mpa](X1)KRWKLFNKQE-NH2)	13.6	93.8	–	–	–	95.8	106	93.7
CC(C)C[C@H](NC(=O)[C@H](CCCCN)NC(=O)CCSSCCCOC(=O)Oc1ccc2nc(C3=N[C@@H](C(=O)O)CS3)sc2c1)C(=O)N[C@@H](Cc1ccccc1)C(=O)N[C@@H](CC(N)=O)C(=O)N[C@@H](CCCCN)C(=O)N[C@@H](CCC(N)=O)C(=O)N[C@@H](CCC(=O)O)C(=O)N[C@@H](Cc1c[nH]c2ccccc12)C(=O)N[C@H](C(=O)N[C@@H](CC(N)=O)C(N)=O)[C@@H](C)O ([Mpa](X1)KLFNKQEWTN-NH2)	9.7	99.4	–	–	–	93	98.8	97.6
CC(C)C[C@H](NC(=O)[C@H](CCCCN)NC(=O)[C@H](Cc1c[nH]c2ccccc12)NC(=O)CCSSCCCOC(=O)Oc1ccc2nc(C3=N[C@@H](C(=O)O)CS3)sc2c1)C(=O)N[C@@H](Cc1ccccc1)C(=O)N[C@@H](CC(N)=O)C(=O)N[C@@H](CCCCN)C(=O)N[C@@H](CCC(N)=O)C(=O)N[C@@H](CCC(=O)O)C(=O)N[C@@H](Cc1c[nH]c2ccccc12)C(=O)N[C@H](C(N)=O)[C@@H](C)O ([Mpa](X1)WKLFNKQEWT-NH2)	14.7	102	–	–	–	100	99.6	104
CC(C)C[C@H](NC(=O)[C@H](CCCCN)NC(=O)[C@H](Cc1c[nH]c2ccccc12)NC(=O)[C@H](CCCNC(=N)N)NC(=O)[C@H](CCCCN)NC(=O)[C@H](CC(C)C)NC(=O)[C@@H](NC(=O)[C@H](CCCNC(=N)N)NC(=O)CCSSCCCOC(=O)Oc1ccc2nc(C3=N[C@@H](C(=O)O)CS3)sc2c1)C(C)C)C(=O)N[C@@H](Cc1ccccc1)C(=O)N[C@@H](CC(N)=O)C(N)=O ([Mpa](X1)RVLKRWKLFN-NH2)	198.2	86	–	–	–	93.5	94.4	92.5
CC(C)C[C@H](NC(=O)[C@H](CO)NC(=O)CCSSCCCOC(=O)Oc1ccc2nc(C3=N[C@@H](C(=O)O)CS3)sc2c1)C(=O)N[C@@H](CCCCN)C(=O)N[C@H](C(=O)N[C@@H](CCCNC(=N)N)C(=O)N[C@H](C(=O)N[C@@H](CC(C)C)C(=O)N[C@@H](CCCCN)C(=O)N[C@@H](CCCNC(=N)N)C(=O)N[C@@H](Cc1c[nH]c2ccccc12)C(N)=O)C(C)C)[C@@H](C)O ([Mpa](X1)SLKTRVLKRW-NH2)	16.7	83.8	–	–	–	84	89.6	84.3
CC(C)C[C@H](NC(=O)CCSSCCCOC(=O)Oc1ccc2nc(C3=N[C@@H](C(=O)O)CS3)sc2c1)C(=O)N[C@@H](CCCCN)C(=O)N[C@H](C(=O)N[C@@H](CCCNC(=N)N)C(=O)N[C@H](C(=O)N[C@@H](CC(C)C)C(=O)N[C@@H](CCCCN)C(=O)N[C@@H](CCCNC(=N)N)C(=O)N[C@@H](Cc1c[nH]c2ccccc12)C(=O)N[C@@H](CCCCN)C(N)=O)C(C)C)[C@@H](C)O ([Mpa](X1)LKTRVLKRWK-NH2)	30.1	87.8	–	–	–	88.5	80	79.1
CC(C)C[C@H](NC(=O)[C@H](CCCCN)NC(=O)[C@H](Cc1c[nH]c2ccccc12)NC(=O)[C@H](CCCNC(=N)N)NC(=O)CCSSCCCOC(=O)Oc1ccc2nc(C3=N[C@@H](C(=O)O)CS3)sc2c1)C(=O)N[C@@H](Cc1ccccc1)C(=O)N[C@@H](CC(N)=O)C(=O)N[C@@H](CCCCN)C(=O)N[C@@H](CCC(N)=O)C(=O)N[C@@H](CCC(=O)O)C(=O)N[C@@H](Cc1c[nH]c2ccccc12)C(N)=O ([Mpa](X1)RWKLFNKQEW-NH2)	18.2	102	–	–	–	92.3	93.6	92.8
CC(C)C[C@H](NC(=O)[C@H](CCCCN)NC(=O)[C@H](Cc1c[nH]c2ccccc12)NC(=O)[C@H](CCCNC(=N)N)NC(=O)[C@H](CCCCN)NC(=O)[C@H](CC(C)C)NC(=O)[C@@H](NC(=O)CCSSCCCOC(=O)Oc1ccc2nc(C3=N[C@@H](C(=O)O)CS3)sc2c1)C(C)C)C(=O)N[C@@H](Cc1ccccc1)C(=O)N[C@@H](CC(N)=O)C(=O)N[C@@H](CCCCN)C(N)=O ([Mpa](X1)VLKRWKLFNK-NH2)	30.3	95.9	–	–	–	88.6	98.5	99.6
CC(C)C[C@H](NC(=O)CCSSCCCOC(=O)Oc1ccc2nc(C3=N[C@@H](C(=O)O)CS3)sc2c1)C(=O)N[C@@H](CCCCN)C(=O)N[C@@H](CCCNC(=N)N)C(=O)N[C@@H](Cc1c[nH]c2ccccc12)C(=O)N[C@@H](CCCCN)C(=O)N[C@@H](CC(C)C)C(=O)N[C@@H](Cc1ccccc1)C(=O)N[C@@H](CC(N)=O)C(=O)N[C@@H](CCCCN)C(=O)N[C@@H](CCC(N)=O)C(N)=O ([Mpa](X1)LKRWKLFNKQ-NH2)	34.5	94	–	–	–	94.2	93.7	88.1
CC(C)C[C@H](NC(=O)[C@H](CO)NC(=O)CNC(=O)CCSSCCCOC(=O)Oc1ccc2nc(C3=N[C@@H](C(=O)O)CS3)sc2c1)C(=O)N[C@@H](CCCCN)C(=O)N[C@H](C(=O)N[C@@H](CCCNC(=N)N)C(=O)N[C@H](C(=O)N[C@@H](CC(C)C)C(=O)N[C@@H](CCCCN)C(=O)N[C@@H](CCCNC(=N)N)C(N)=O)C(C)C)[C@@H](C)O ([Mpa](X1)GSLKTRVLKR-NH2)	11.2	87	–	–	–	101	100	93.1
CC(C)C[C@H](NC(=O)[C@H](CCCCN)NC(=O)[C@H](Cc1c[nH]c2ccccc12)NC(=O)[C@H](CCCNC(=N)N)NC(=O)[C@H](CCCCN)NC(=O)[C@H](CC(C)C)NC(=O)[C@@H](NC(=O)[C@H](CCCNC(=N)N)NC(=O)[C@@H](NC(=O)[C@H](CCCCN)NC(=O)CCSSCCCOC(=O)Oc1ccc2nc(C3=N[C@@H](C(=O)O)CS3)sc2c1)[C@@H](C)O)C(C)C)C(N)=O ([Mpa](X1)KTRVLKRWKL-NH2)	30.7	80.1	–	–	–	77.7	85.3	80.5
